Experimental data: patent publication US8022206B2 (OSI Pharmaceuticals, LLC, priority 2008, dated 2011)

Target: RON (human) (Homo sapiens, UniProt Q04912)
Assay: RON (human) AlphaScreen kinase assay, Km of ATP
Assay type: biochemical
Conditions: AlphaScreen, Km of ATP; read-out: RON biochemical IC50
Procedure: Someone skilled in the art will appreciate that a variety of assay formats may be used to determine the activity of the compounds of this invention. For example, AlphaScreen (Amplified Luminescent Proximity Homogeneous Assay) technology was used with the kinases described below. Assay ATP concentrations for individual kinases are included in the text.
Desired compound is added in a final concentration of 1% DMSO with control being vehicle of DMSO alone. […] Enzyme is added to initiate the reaction and incubated for 30 min at RT. In subdued light, appropriate amount of PT66 donor and acceptor beads (diluted 1:260 from manufacturer's provision in a 25 mM Tris HCl (pH=7.5), 200 mM NaCl, 100 mM EDTA, 0.3% BSA buffer) are added to the wells. The plates, incubated for 1 h, are read on an AlphaQuest plate reader.

Chain of RON (human) (Q04912 25-1400): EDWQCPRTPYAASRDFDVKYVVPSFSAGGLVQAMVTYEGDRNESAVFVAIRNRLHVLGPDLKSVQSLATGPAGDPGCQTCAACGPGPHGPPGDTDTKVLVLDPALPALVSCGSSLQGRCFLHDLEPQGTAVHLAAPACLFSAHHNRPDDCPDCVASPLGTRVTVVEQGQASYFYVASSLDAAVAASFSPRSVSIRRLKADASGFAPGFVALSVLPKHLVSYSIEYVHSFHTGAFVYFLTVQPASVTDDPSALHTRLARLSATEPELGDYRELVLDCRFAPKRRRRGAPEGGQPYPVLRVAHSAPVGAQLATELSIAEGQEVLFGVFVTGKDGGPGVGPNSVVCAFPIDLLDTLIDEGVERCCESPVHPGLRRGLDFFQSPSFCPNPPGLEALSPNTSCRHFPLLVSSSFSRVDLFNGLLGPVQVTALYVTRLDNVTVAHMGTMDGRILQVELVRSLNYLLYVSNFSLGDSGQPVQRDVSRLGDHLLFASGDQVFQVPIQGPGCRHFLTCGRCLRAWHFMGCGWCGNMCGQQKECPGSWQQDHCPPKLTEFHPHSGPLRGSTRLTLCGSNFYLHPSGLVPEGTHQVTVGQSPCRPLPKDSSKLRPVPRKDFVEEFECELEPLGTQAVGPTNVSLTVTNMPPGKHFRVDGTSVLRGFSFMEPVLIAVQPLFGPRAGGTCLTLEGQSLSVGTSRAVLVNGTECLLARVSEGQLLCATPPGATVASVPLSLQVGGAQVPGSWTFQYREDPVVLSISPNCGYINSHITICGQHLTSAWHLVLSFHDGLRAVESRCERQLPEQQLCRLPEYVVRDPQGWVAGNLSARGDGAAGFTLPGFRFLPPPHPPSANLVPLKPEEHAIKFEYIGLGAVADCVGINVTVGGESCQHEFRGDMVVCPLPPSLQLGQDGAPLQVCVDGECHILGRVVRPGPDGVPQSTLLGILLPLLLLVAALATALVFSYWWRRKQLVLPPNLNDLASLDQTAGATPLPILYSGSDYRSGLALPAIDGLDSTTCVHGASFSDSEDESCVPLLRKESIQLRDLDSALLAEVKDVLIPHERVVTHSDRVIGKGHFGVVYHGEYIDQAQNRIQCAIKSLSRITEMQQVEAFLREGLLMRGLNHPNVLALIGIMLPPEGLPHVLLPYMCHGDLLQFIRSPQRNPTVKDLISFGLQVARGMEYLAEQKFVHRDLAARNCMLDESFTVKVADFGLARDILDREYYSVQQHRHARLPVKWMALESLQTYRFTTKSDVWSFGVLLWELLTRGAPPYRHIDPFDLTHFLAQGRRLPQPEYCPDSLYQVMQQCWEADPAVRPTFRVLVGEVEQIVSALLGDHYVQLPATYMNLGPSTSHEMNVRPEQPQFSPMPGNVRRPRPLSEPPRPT

Question: `C[C@@H](Oc1c(N)ncc2c(-c3ccccc3)coc12)c1c(Cl)ccc(F)c1Cl` [Example 3, 7-[(R)-1-(2,6-dichloro-3-fluorophenyl)-ethoxy]-3-phenyl-furo[3,2-c]pyridin-6-ylamine] was tested. Which IC50 did it give?
Answer: The IC50 was 500 to 5000 nM.

Question: Which IC50 does the source give for `C[C@@H](Oc1c(N)ncc2c(-c3cn[nH]c3)coc12)c1c(Cl)ccc(F)c1Cl` [Example 6, 7-[(R)-1-(2,6-Dichloro-3-fluorophenyl)ethoxy]-3-(1H-pyrazol-4-yl)-furo[3,2-c]pyridin-6-ylamine] here?
Answer: Its IC50 is 500 to 5000 nM.

Question: For `C[C@@H](Oc1c(N)ncc2c(C3=CCNCC3)coc12)c1c(Cl)ccc(F)c1Cl` [Example 8, 7-[(R)-1-(2,6-Dichloro-3-fluorophenyl)ethoxy]-3-(1,2,3,6-tetrahydropyridin-4-yl)-furo[3,2-c]pyridin-6-ylamine], which IC50 is on record?
Answer: Its IC50 is 500 to 5000 nM.

Question: `CC(=O)N1CC=C(c2coc3c(O[C@H](C)c4c(Cl)ccc(F)c4Cl)c(N)ncc23)CC1` [Example 12, 1-(4-{6-Amino-7-[(R)-1-(2,6-dichloro-3-fluorophenyl)-ethoxy]-furo[3,2-c]pyridin-3-yl}-3,6-dihydro-2H-pyridin-1-yl)-ethanone] was tested. Which IC50 did it give?
Answer: Its IC50 is 500 to 5000 nM.

Question: `C[C@@H](Oc1c(N)ncc2c(C3CCNCC3)coc12)c1c(Cl)ccc(F)c1Cl` [Example 25, 7-[(R)-1-(2,6-Dichloro-3-fluorophenyl)-ethoxy]-3-piperidin-4-yl-furo[3,2-c]pyridin-6-ylamine] was tested. Which IC50 did it give?
Answer: The IC50 was 500 to 5000 nM.

Question: How did the IC50 turn out when `C[C@@H](Oc1c(N)ncc2c(C3=CCN(C(=O)N(C)C)CC3)coc12)c1c(Cl)ccc(F)c1Cl` [Example 26, 4-{6-Amino-7-[(R)-1-(2,6-dichloro-3-fluorophenyl)-ethoxy]-furo[3,2-c]pyridin-3-yl}-3,6-dihydro-2H-pyridine-1-carboxylic acid Dimethylamide] was run?
Answer: Its IC50 is 500 to 5000 nM.

Question: With `CNC(=O)N1CC=C(c2coc3c(O[C@H](C)c4c(Cl)ccc(F)c4Cl)c(N)ncc23)CC1` [Example 35, 4-{6-Amino-7-[(R)-1-(2,6-dichloro-3-fluorophenyl)-ethoxy]-furo[3,2-c]pyridin-3-yl}-3,6-dihydro-2H-pyridine-1-carboxylic acid methylamide] as the compound, how does the IC50 read?
Answer: Its IC50 is 500 to 5000 nM.

Question: `COC(=O)N1CC=C(c2coc3c(O[C@H](C)c4c(Cl)ccc(F)c4Cl)c(N)ncc23)CC1` [Example 50, 4-{6-Amino-7-[(R)-1-(2,6-dichloro-3-fluorophenyl)-ethoxy]-furo[3,2-c]pyridin-3-yl}-3,6-dihydro-2H-pyridine-1-carboxylic acid methyl ester] was tested. Which IC50 did it give?
Answer: Its IC50 is 500 to 5000 nM.

Question: How did the IC50 turn out when `C[C@@H](Oc1c(N)ncc2c(-c3cccnc3)coc12)c1c(Cl)ccc(F)c1Cl` [Example 126, 7-[(R)-(2,6-Dichloro-3-fluorophenyl)ethoxy]-3-pyridin-3-ylfuro[3,2-c]pyridin-6-ylamine] was run?
Answer: Its IC50 is 500 to 5000 nM.

Question: How did the IC50 turn out when `C[C@@H](Oc1c(N)ncc2c(-c3ccncc3)coc12)c1c(Cl)ccc(F)c1Cl` [Example 127, 7-[(R)-(2,6-Dichloro-3-fluorophenyl)ethoxy]-3-pyridin-4-ylfuro[3,2-c]pyridin-6-ylamine] was run?
Answer: The IC50 was 500 to 5000 nM.

Question: Which IC50 does the source give for `C[C@@H](Oc1c(N)ncc2c(-c3ccccn3)coc12)c1c(Cl)ccc(F)c1Cl` [Example 137, 7-[(R)-1-(2,6-Dichloro-3-fluorophenyl)-ethoxy]-3-pyridin-2-ylfuro[3,2-c]pyridin-6-ylamine] here?
Answer: The IC50 was 500 to 5000 nM.

Question: How did the IC50 turn out when `C[C@@H](Oc1c(N)ncc2c(C3=CCN(S(N)(=O)=O)CC3)coc12)c1c(Cl)ccc(F)c1Cl` [Example 141, 4-{6-Amino-7-[(1R)-1-(2,6-dichloro-3-fluorophenyl)ethoxy]furo[3,2-c]pyridin-3-yl}-3,6-dihydropyridine-1(2H)-sulfonamide] was run?
Answer: Its IC50 is 500 to 5000 nM.

Question: With `CC(Oc1c(N)ncc2c(-c3cnn(C4CCNCC4)c3)coc12)c1c(Cl)c(F)cc(F)c1Cl` (stereo not drawn) [Example 154, 7-[1-(2,6-Dichloro-3,5-difluorophenyl)ethoxy]-3-[1-(piperidin-4-yl)-1H-pyrazol-4-yl]furo[3,2-c]pyridin-6-amine] as the compound, how does the IC50 read?
Answer: Its IC50 is < 500 nM.

Question: For `CNC(=O)c1coc2c(O[C@H](C)c3c(Cl)ccc(F)c3Cl)c(N)ncc12` [Example 178, 6-Amino-7-[(R)-1-(2,6-dichloro-3-fluorophenyl)ethoxy]furo[3,2-c]pyridine-3-carboxylic acid methylamide], which IC50 is on record?
Answer: Its IC50 is 500 to 5000 nM.

Question: Which IC50 does the source give for `CC(=O)N1CCC(n2cc(-c3coc4c(O[C@H](C)c5c(Cl)ccc(F)c5Cl)c(N)ncc34)cn2)CC1` [Example 276, 1-[4-(4-{6-Amino-7-[(1R)-1-(2,6-dichloro-3-fluorophenyl)ethoxy]furo[3,2-c]pyridin-3-yl}-1H-pyrazol-1-yl)piperidin-1-yl]ethanone] here?
Answer: The IC50 was 500 to 5000 nM.

Question: `CC(Oc1c(N)ncc2c(-c3cnn(C4CCNCC4)c3)coc12)c1cc(F)ccc1Cl` (stereo not drawn) [Example 336, 7-[1-(2-Chloro-5-fluorophenyl)ethoxy]-3-(1-piperidin-4-yl-1H-pyrazol-4-yl)-furo[3,2-c]pyridin-6-ylamine] was tested. Which IC50 did it give?
Answer: The IC50 was 500 to 5000 nM.

Question: With `Nc1ncc2c(-c3cnn(C4CCNCC4)c3)coc2c1OCc1c(Cl)ccc(F)c1Cl` [Example 339, 7-(2,6-Dichloro-3-fluorobenzyloxy)-3-(1-piperidin-4-yl-1H-pyrazol-4-yl)-furo[3,2-c]pyridin-6-ylamine] as the compound, how does the IC50 read?
Answer: Its IC50 is 500 to 5000 nM.

Question: How did the IC50 turn out when `CC(Oc1c(N)ncc2c(-c3cnn(C4CCNCC4)c3)coc12)c1c(Cl)ccc(Cl)c1Cl` (stereo not drawn) [Example 349, 3-(1-Piperidin-4-yl-1H-pyrazol-4-yl)-7-[1-(2,3,6-trichlorophenyl)-ethoxy]furo[3,2-c]pyridin-6-ylamine] was run?
Answer: The IC50 was < 500 nM.

Question: Which IC50 does the source give for `CCC(Oc1c(N)ncc2c(-c3cnn(C4CCNCC4)c3)coc12)c1c(Cl)ccc(F)c1Cl` (stereo not drawn) [Example 350] here?
Answer: Its IC50 is < 500 nM.

Question: For `CC(Oc1c(N)ncc2c(-c3cnn(C4CCNCC4)c3)coc12)c1cccc(F)c1Cl` (stereo not drawn) [Example 351, 7-[1-(2-Chloro-3-fluorophenyl)ethoxy]-3-(1-piperidin-4-yl-1H-pyrazol-4-yl)-furo[3,2-c]pyridin-6-ylamine], which IC50 is on record?
Answer: The IC50 was 500 to 5000 nM.

Question: Which IC50 does the source give for `C#CCC(Oc1c(N)ncc2c(-c3cnn(C4CCNCC4)c3)coc12)c1c(Cl)ccc(F)c1Cl` (stereo not drawn) [Example 353, 7-[1-(2,6-Dichloro-3-fluorophenyl)but-3-ynyloxy]-3-(1-piperidin-4-yl-1H-pyrazol-4-yl)furo[3,2-c]pyridin-6-ylamine] here?
Answer: Its IC50 is 500 to 5000 nM.

Question: `CCCC(Oc1c(N)ncc2c(-c3cnn(C4CCNCC4)c3)coc12)c1c(Cl)ccc(F)c1Cl` (stereo not drawn) [Example 357, 7-[1-(2,6-Dichloro-3-fluorophenyl)butoxy]-3-(1-piperidin-4-yl-1H-pyrazol-4-yl)furo[3,2-c]pyridin-6-ylamine] was tested. Which IC50 did it give?
Answer: Its IC50 is < 500 nM.

Question: How did the IC50 turn out when `C=CCC(Oc1c(N)ncc2c(-c3cnn(C4CCNCC4)c3)coc12)c1c(Cl)ccc(F)c1Cl` (stereo not drawn) [Example 358, 7-[1-(2,6-Dichloro-3-fluorophenyl)but-3-enyloxy]-3-(1-piperidin-4-yl-1H-pyrazol-4-yl)furo[3,2-c]pyridin-6-ylamine] was run?
Answer: Its IC50 is < 500 nM.

Question: With `CC(Oc1c(N)ncc2c(-c3cnn(C4CCNCC4)c3)coc12)c1c(Cl)cc(Cl)cc1Cl` (stereo not drawn) [Example 364, 3-(1-Piperidin-4-yl-1H-pyrazol-4-yl)-7-[1-(2,4,6-trichlorophenyl)-ethoxy]furo[3,2-c]pyridin-6-ylamine] as the compound, how does the IC50 read?
Answer: The IC50 was < 500 nM.
